Measurements reported in US20240270762A1, “PENICILLIN-BINDING PROTEIN INHIBITORS” (priority 2021, published 2024).
pEC50, pIC50: −log10 of the molar value. Converted amounts (≈) assume the structure as drawn.

Columns and labels:
[1] = tested on: A. baumannii CDC-0083; test: microbe, parasite or virus in culture; type: cell-based; settings: Acinetobacter baumannii, CDC0083, read-out: MIC, A. baumannii CDC-0083
[2] = target: T1, PBP3 from Pseudomonas aeruginosa (PAO1) (Pseudomonas aeruginosa, UniProt G3XD46); test: Bocillin-FL fluorescence polarization competition binding, P. aeruginosa PBP3; settings: Binding affinity to P. aeruginosa PBP3; fluorescence polarization competition binding assay using Bocillin-FL; read-out: P. aeruginosa PBP3 Potency
T1 construct: made in house
Outline: (§1)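 Purified PBPs pre-incubated with inhibitor (E. coli PBP3 1.5 μM, 30 min; P. aeruginosa PBP3 0.75 μM, A. baumannii PBP1a 1 μM and PBP3 0.2 μM, 15 min), then Bocillin-FL 0.1 μM (0.05 μM for PBP1a) added; FP read up to 60 min. EC50 = concentration halving bound Bocillin-FL.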

[3] = tested on: A. baumannii CDC-0033; test: microbe, parasite or virus in culture; type: cell-based; settings: Acinetobacter baumannii, CDC0033, read-out: MIC, A. baumannii CDC-0033
[4] = tested on: N. gonorrhoeae WHO G; test: Liquid broth MIC in Fastidious broth; settings: Neisseria gonorrhoeae, read-out: Minimum Inhibitory Concentration (MIC), N. gonorrhoeae WHO G
[5] = tested on: P. aeruginosa CDC-0110; test: microbe, parasite or virus in culture; type: cell-based; settings: Pseudomonas aeruginosa, CDC0110, read-out: Minimum inhibitory concentration, P. aeruginosa CDC-0110
[6] = tested on: B. humptydooensis ATCC BAA-2767; test: microbe, parasite or virus in culture; type: cell-based; settings: Burkholderia humptydooensis, ATCCBAA2767, read-out: Minimum inhibitory concentration (MIC), B. humptydooensis ATCC BAA-2767
[7] = tested on: B. thailandensis ATCC 700388; test: microbe, parasite or virus in culture; type: cell-based; settings: Burkholderia thailandensis, ATCC700388, read-out: Minimum inhibitory concentration (MIC), B. thailandensis ATCC 700388
[8] = tested on: P. aeruginosa CDC-0095; test: microbe, parasite or virus in culture; type: cell-based; settings: Pseudomonas aeruginosa, CDC0095, read-out: Minimum inhibitory concentration, P. aeruginosa CDC-0095
[9] = tested on: P. aeruginosa CDC-0090; test: microbe, parasite or virus in culture; type: cell-based; settings: Pseudomonas aeruginosa, CDC0090, read-out: Minimum inhibitory concentration, P. aeruginosa CDC-0090
[10] = tested on: N. gonorrhoeae WHO X; test: Liquid broth MIC in Fastidious broth; settings: Neisseria gonorrhoeae, read-out: Minimum Inhibitory Concentration (MIC), N. gonorrhoeae WHO X
[11] = tested on: P. aeruginosa ATCC 27853; test: microbe, parasite or virus in culture; type: cell-based; settings: Pseudomonas aeruginosa, ATCC27853, read-out: Minimum inhibitory concentration, P. aeruginosa ATCC 27853
[12] = tested on: P. aeruginosa CDC-0054; test: microbe, parasite or virus in culture; type: cell-based; settings: Pseudomonas aeruginosa, CDC0054, read-out: Minimum inhibitory concentration, P. aeruginosa CDC-0054
[13] = target: T2, PBP3 from Escherichia coli (K-12) (Escherichia coli, UniProt P0AD68); test: Bocillin-FL fluorescence polarization competition binding, E. coli PBP3
T2 construct: made in house
Outline: as §1

[14] = tested on: N. gonorrhoeae CDC-0197; test: Liquid broth MIC in Fastidious broth; settings: Neisseria gonorrhoeae, CDC0197, read-out: Minimum Inhibitory Concentration (MIC), N. gonorrhoeae CDC-0197
[15] = tested on: N. gonorrhoeae ATCC 49226; test: Liquid broth MIC in Fastidious broth; settings: Neisseria gonorrhoeae, ATCC49226, read-out: Minimum Inhibitory Concentration (MIC), N. gonorrhoeae ATCC 49226

T2 sequence (P0AD68 1-577): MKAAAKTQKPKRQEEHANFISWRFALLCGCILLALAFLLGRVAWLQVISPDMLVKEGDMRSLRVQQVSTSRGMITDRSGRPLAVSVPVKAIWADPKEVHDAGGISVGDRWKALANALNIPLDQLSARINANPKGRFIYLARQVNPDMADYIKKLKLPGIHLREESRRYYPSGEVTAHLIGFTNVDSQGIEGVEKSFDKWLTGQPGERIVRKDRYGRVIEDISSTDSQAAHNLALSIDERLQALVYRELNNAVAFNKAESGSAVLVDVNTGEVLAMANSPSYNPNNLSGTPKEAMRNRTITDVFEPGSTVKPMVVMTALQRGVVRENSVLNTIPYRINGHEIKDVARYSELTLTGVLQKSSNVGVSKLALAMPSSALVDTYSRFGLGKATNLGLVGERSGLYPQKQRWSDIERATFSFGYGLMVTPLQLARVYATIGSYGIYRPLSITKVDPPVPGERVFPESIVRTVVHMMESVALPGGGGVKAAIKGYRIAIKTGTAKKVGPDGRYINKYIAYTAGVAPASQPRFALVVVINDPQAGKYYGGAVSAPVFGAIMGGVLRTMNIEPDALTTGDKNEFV
T1 sequence (G3XD46 whole entry): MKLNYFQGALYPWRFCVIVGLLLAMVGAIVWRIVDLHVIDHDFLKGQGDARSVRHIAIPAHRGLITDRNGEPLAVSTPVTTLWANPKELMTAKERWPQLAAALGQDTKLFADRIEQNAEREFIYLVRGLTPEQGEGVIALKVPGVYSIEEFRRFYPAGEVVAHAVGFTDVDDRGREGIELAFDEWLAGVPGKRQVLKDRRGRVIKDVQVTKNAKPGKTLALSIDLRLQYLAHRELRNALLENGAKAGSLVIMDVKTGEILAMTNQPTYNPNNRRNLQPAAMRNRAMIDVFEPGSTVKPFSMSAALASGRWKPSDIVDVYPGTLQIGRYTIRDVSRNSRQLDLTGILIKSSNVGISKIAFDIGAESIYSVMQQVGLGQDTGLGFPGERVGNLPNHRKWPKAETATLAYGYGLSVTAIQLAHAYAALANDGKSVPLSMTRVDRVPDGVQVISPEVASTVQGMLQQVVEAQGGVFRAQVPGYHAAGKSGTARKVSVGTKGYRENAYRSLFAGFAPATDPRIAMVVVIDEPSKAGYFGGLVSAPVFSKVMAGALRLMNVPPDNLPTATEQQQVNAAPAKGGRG

SMILES	MIC [1] [µg/mL]	pIC50 [2]	MIC [3] [µg/mL]	MIC [4] [µg/mL]	MIC [5] [µg/mL]	MIC [6] [µg/mL]	MIC [7] [µg/mL]	MIC [8] [µg/mL]	MIC [9] [µg/mL]	MIC [10] [µg/mL]	MIC [11] [µg/mL]	MIC [12] [µg/mL]	pEC50 [13]	MIC [14] [µg/mL]	MIC [15] [µg/mL]
CN(CCN1CCN(C(=O)N[C@@H](C(=O)N[C@H]2Cc3ccc(F)c(C(=O)O)c3OB2O)c2cc(F)c(O)c(O)c2Cl)C(=O)C1=O)Cc1cccc(C(N)=O)c1 [Example 225, (R)-3-((R)-2-(4-(2-((3-carbamoylbenzyl)(methyl)amino)ethyl)-2,3-dioxopiperazine-1-carboxamido)-2-(2-chloro-5-fluoro-3,4-dihydroxyphenyl)acetamido)-7-fluoro-2-hydroxy-3,4-dihydro-2H-benzo[e][1,2]oxaborinine-8-carboxylic acid]	< 1	> 5.00	2 to 4 (≈ 2.59 to 5.18 µM)	16 to 32 (≈ 20.7 to 41.4 µM)	< 1	< 1	< 1	2 to 4 (≈ 2.59 to 5.18 µM)	< 1	> 64	2 to 4 (≈ 2.59 to 5.18 µM)	2 to 4 (≈ 2.59 to 5.18 µM)	4.30 to 5.00	16 to 32 (≈ 20.7 to 41.4 µM)	16 to 32 (≈ 20.7 to 41.4 µM)
CN(CCN1CCN(C(=O)N[C@@H](C(=O)N[C@H]2Cc3ccc(F)c(C(=O)O)c3OB2O)c2cc(F)c(O)c(O)c2Cl)C(=O)C1=O)Cc1ccc(C(N)=O)cc1 [Example 226, (R)-3-((R)-2-(4-(2-((4-carbamoylbenzyl)(methyl)amino)ethyl)-2,3-dioxopiperazine-1-carboxamido)-2-(2-chloro-5-fluoro-3,4-dihydroxyphenyl)acetamido)-7-fluoro-2-hydroxy-3,4-dihydro-2H-benzo[e][1,2]oxaborinine-8-carboxylic acid]	< 1	> 5.00	2 to 4 (≈ 2.59 to 5.18 µM)	16 to 32 (≈ 20.7 to 41.4 µM)	< 1	< 1	< 1	2 to 4 (≈ 2.59 to 5.18 µM)	< 1	> 64	2 to 4 (≈ 2.59 to 5.18 µM)	8 to 16 (≈ 10.4 to 20.7 µM)	> 5.00	> 64	16 to 32 (≈ 20.7 to 41.4 µM)
O=C(NCCCN1CCN(C(=O)NC(C(=O)N[C@H]2Cc3ccc(F)c(C(=O)O)c3OB2O)c2cc(F)c(O)c(O)c2Cl)C(=O)C1=O)Nc1ccc(O)cc1 (stereo partly drawn) [Example 227, (3R)-3-(2-(2-chloro-5-fluoro-3,4-dihydroxyphenyl)-2-(4-(3-(3-(4-hydroxyphenyl)ureido)propyl)-2,3-dioxopiperazine-1-carboxamido)acetamido)-7-fluoro-2-hydroxy-3,4-dihydro-2H-benzo[e][1,2]oxaborinine-8-carboxylic acid]	< 1	> 5.00	2 to 4 (≈ 2.58 to 5.16 µM)	4 to 8 (≈ 5.16 to 10.3 µM)	< 1	< 1	< 1	< 1	2 to 4 (≈ 2.58 to 5.16 µM)	> 64	< 1	< 1	4.30 to 5.00	> 64	16 to 32 (≈ 20.6 to 41.3 µM)
O=C(NCCCN1CCN(C(=O)NC(C(=O)N[C@H]2Cc3ccc(F)c(C(=O)O)c3OB2O)c2cc(F)c(O)c(O)c2Cl)C(=O)C1=O)Nc1ccncc1 (stereo partly drawn) [Example 228, (3R)-3-(2-(2-chloro-5-fluoro-3,4-dihydroxyphenyl)-2-(2,3-dioxo-4-(3-(3-(pyridin-4-yl)ureido)propyl)piperazine-1-carboxamido)acetamido)-7-fluoro-2-hydroxy-3,4-dihydro-2H-benzo[e][1,2]oxaborinine-8-carboxylic acid]	< 1	> 5.00	2 to 4 (≈ 2.63 to 5.26 µM)	16 to 32 (≈ 21.1 to 42.1 µM)	< 1	< 1	< 1	2 to 4 (≈ 2.63 to 5.26 µM)	2 to 4 (≈ 2.63 to 5.26 µM)	> 64	< 1	< 1	> 5.00	> 64	> 64
